Laboratory results as given in the supplement of paper PMC10307832.

Legend:
Assay in all cases: relative viability (nuclei count vs DMSO), 5 days (fraction); higher = more cells survive
201T = system: 201T
How it was run: (§1)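 The day after seeding in 1536-well plates, lung cancer cell lines were treated by pin tool with a single drug, or with a fixed anchor-drug dose together with five library-drug doses (not always all listed) in √10 steps. After 5 days, a combined fix-and-stain solution (final 0.05% Triton X-100, 1% formaldehyde, 1 ug/ml Hoechst) was added. Nuclei counted on 4× images gave relative viability as treated counts over vehicle counts, reported as the median of duplicate plates.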

BEN = system: BEN
How it was run: as §1

EPLC-272H = system: EPLC-272H
How it was run: as §1

HCC-15 = system: HCC-15
How it was run: as §1

HCC-78 = system: HCC-78
How it was run: as §1

LCLC-97TM1 = system: LCLC-97TM1
How it was run: as §1

LU99A = system: LU99A
How it was run: as §1

NCI-H1355 = system: NCI-H1355
How it was run: as §1

NCI-H1395 = system: NCI-H1395
How it was run: as §1

NCI-H2009 = system: NCI-H2009
How it was run: as §1

NCI-H2085 = system: NCI-H2085
How it was run: as §1

NCI-H2126 = system: NCI-H2126
How it was run: as §1

NCI-H2228 = system: NCI-H2228
How it was run: as §1

NCI-H2342 = system: NCI-H2342
How it was run: as §1

NCI-H23 = system: NCI-H23
How it was run: as §1

NCI-H2405 = system: NCI-H2405
How it was run: as §1

NCI-H322M = system: NCI-H322M
How it was run: as §1

NCI-H460 = system: NCI-H460
How it was run: as §1

NCI-H647 = system: NCI-H647
How it was run: as §1

NCI-H650 = system: NCI-H650
How it was run: as §1

NCI-H661 = system: NCI-H661
How it was run: as §1

NCI-H838 = system: NCI-H838
How it was run: as §1

PC-14 = system: PC-14
How it was run: as §1

Work on CN1CCN(CCOc2cc(OC3CCOCC3)c3c(Nc4c(Cl)ccc5c4OCO5)ncnc3c2)CC1 [Saracatinib] + CC(=O)Nc1cccc(-n2c(=O)n(C3CC3)c(=O)c3c(Nc4ccc(I)cc4F)n(C)c(=O)c(C)c32)c1 [Trametinib] (partner 0.02 µM) yielded a relative viability (201T; first compound 0.02 µM) of 0.726, a relative viability (201T; first compound 0.2 µM) of 0.685 and a relative viability (201T; first compound 0.6325 µM) of 0.65. The relative viability (201T; first compound 2 µM) was 0.615, the relative viability (BEN; first compound 0.02 µM) was 1.04 and the relative viability (BEN; first compound 0.2 µM) was 1.15. The relative viability (BEN; first compound 0.6325 µM) was 1.17, the relative viability (BEN; first compound 2 µM) was 1.13 and the relative viability (EPLC-272H; first compound 0.02 µM) was 0.289. It also gave a relative viability (EPLC-272H; first compound 0.2 µM) of 0.368, a relative viability (EPLC-272H; first compound 0.6325 µM) of 0.283 and a relative viability (EPLC-272H; first compound 2 µM) of 0.287. The relative viability (HCC-15; first compound 0.02 µM) was 0.44, the relative viability (HCC-15; first compound 0.2 µM) was 0.371 and the relative viability (HCC-15; first compound 0.6325 µM) was 0.455. For the same molecule, the relative viability (HCC-15; first compound 2 µM) was 0.388, the relative viability (HCC-78; first compound 0.02 µM) was 0.569 and the relative viability (HCC-78; first compound 0.6325 µM) was 0.869. For the same molecule, the relative viability (HCC-78; first compound 2 µM) was 0.523, the relative viability (LCLC-97TM1; first compound 0.02 µM) was 0.222 and the relative viability (LCLC-97TM1; first compound 0.2 µM) was 0.21. The relative viability (LCLC-97TM1; first compound 0.6325 µM) was 0.223, the relative viability (LCLC-97TM1; first compound 2 µM) was 0.275 and the relative viability (LU99A; first compound 0.02 µM) was 0.532. For the same molecule, the relative viability (LU99A; first compound 0.2 µM) was 0.473, the relative viability (LU99A; first compound 0.6325 µM) was 0.565 and the relative viability (LU99A; first compound 2 µM) was 0.459. The relative viability (NCI-H1355; first compound 0.02 µM) was 0.437, the relative viability (NCI-H1355; first compound 0.2 µM) was 0.456 and the relative viability (NCI-H1355; first compound 0.6325 µM) was 0.439. It also gave a relative viability (NCI-H1355; first compound 2 µM) of 0.441, a relative viability (NCI-H1395; first compound 0.02 µM) of 1.07 and a relative viability (NCI-H1395; first compound 0.2 µM) of 0.995. For the same molecule, the relative viability (NCI-H1395; first compound 0.6325 µM) was 0.953, the relative viability (NCI-H1395; first compound 2 µM) was 0.905 and the relative viability (NCI-H2009; first compound 0.02 µM) was 0.274. The relative viability (NCI-H2009; first compound 0.2 µM) was 0.207, the relative viability (NCI-H2009; first compound 0.6325 µM) was 0.209 and the relative viability (NCI-H2009; first compound 2 µM) was 0.175. It also gave a relative viability (NCI-H2085; first compound 0.02 µM) of 0.482, a relative viability (NCI-H2085; first compound 0.2 µM) of 0.541 and a relative viability (NCI-H2085; first compound 0.6325 µM) of 0.497. The relative viability (NCI-H2085; first compound 2 µM) was 0.404, the relative viability (NCI-H2126; first compound 0.02 µM) was 0.592 and the relative viability (NCI-H2126; first compound 0.2 µM) was 0.509. For the same molecule, the relative viability (NCI-H2126; first compound 0.6325 µM) was 0.551, the relative viability (NCI-H2126; first compound 2 µM) was 0.517 and the relative viability (NCI-H2228; first compound 0.02 µM) was 0.616. The relative viability (NCI-H2228; first compound 0.2 µM) was 0.425, the relative viability (NCI-H2228; first compound 0.6325 µM) was 0.703 and the relative viability (NCI-H2228; first compound 2 µM) was 0.465. It also gave a relative viability (NCI-H2342; first compound 0.02 µM) of 0.763, a relative viability (NCI-H2342; first compound 0.2 µM) of 0.789 and a relative viability (NCI-H2342; first compound 0.6325 µM) of 0.944. It also gave a relative viability (NCI-H2342; first compound 2 µM) of 0.817, a relative viability (NCI-H23; first compound 0.02 µM) of 0.344 and a relative viability (NCI-H23; first compound 0.6325 µM) of 0.351. The relative viability (NCI-H23; first compound 2 µM) was 0.218, the relative viability (NCI-H2405; first compound 0.02 µM) was 0.646 and the relative viability (NCI-H2405; first compound 0.2 µM) was 0.616. It also gave a relative viability (NCI-H2405; first compound 0.6325 µM) of 0.444, a relative viability (NCI-H2405; first compound 2 µM) of 0.406 and a relative viability (NCI-H322M; first compound 0.02 µM) of 0.529. The relative viability (NCI-H322M; first compound 0.2 µM) was 0.449, the relative viability (NCI-H322M; first compound 0.6325 µM) was 0.582 and the relative viability (NCI-H322M; first compound 2 µM) was 0.357. For the same molecule, the relative viability (NCI-H460; first compound 0.02 µM) was 0.215, the relative viability (NCI-H460; first compound 0.2 µM) was 0.139 and the relative viability (NCI-H460; first compound 0.6325 µM) was 0.129. For the same molecule, the relative viability (NCI-H460; first compound 2 µM) was 0.056, the relative viability (NCI-H647; first compound 0.02 µM) was 0.449 and the relative viability (NCI-H647; first compound 0.2 µM) was 0.381. The relative viability (NCI-H647; first compound 0.6325 µM) was 0.39, the relative viability (NCI-H647; first compound 2 µM) was 0.255 and the relative viability (NCI-H650; first compound 0.02 µM) was 0.993. The relative viability (NCI-H650; first compound 0.2 µM) was 0.877, the relative viability (NCI-H650; first compound 0.6325 µM) was 1.03 and the relative viability (NCI-H650; first compound 2 µM) was 0.92. The relative viability (NCI-H661; first compound 0.02 µM) was 0.568, the relative viability (NCI-H661; first compound 0.2 µM) was 0.572 and the relative viability (NCI-H661; first compound 0.6325 µM) was 0.6. The relative viability (NCI-H661; first compound 2 µM) was 0.362, the relative viability (NCI-H838; first compound 0.02 µM) was 0.54 and the relative viability (NCI-H838; first compound 0.2 µM) was 0.497. For the same molecule, the relative viability (NCI-H838; first compound 0.6325 µM) was 0.47, the relative viability (NCI-H838; first compound 2 µM) was 0.425 and the relative viability (PC-14; first compound 0.02 µM) was 0.605. For the same molecule, the relative viability (PC-14; first compound 0.2 µM) was 0.275, the relative viability (PC-14; first compound 0.6325 µM) was 0.0993 and the relative viability (PC-14; first compound 2 µM) was 0.0574.
